Consider three compounds from US3965111A, “Triazolothienodiazepine compounds” (Yoshitomi Pharmaceutical Industries, Ltd., priority 1971, dated 1976).

Holding throughout (format): in vivo
The subject of experiment [1] is fighting episodes in mice. In words: Suppression of fighting behavior (electric foot-shock induced fighting). The note with it: Mus musculus; female mice, oral, 60 min before foot-shock for 3 min; dose to suppress 50% of fighting pairs. Here is the method:
I. suppression of Fighting Behavior
Fighting episodes were produced in mice by the method described by Tedeschi et al in Journal of Pharmacology and Experimental Therapeutics, Vol. 125, pp. 28 ff. (1959). Groups of 8 female mice (4 pairs) were given orally, the test compound 60 minutes prior to receiving electric foot-shock for 3 minutes with 530 volts of interrupted direct current, 1.3 milliamperes, 10 Hz. […] The control mice of 81 pairs had shown the fighting episodes of 8.7 times on the average under the same conditions. The ED50, a dose required to suppress 50% of fighting pairs was determined graphically.

Experiment [2] in a line: Anti-megimide effect (prevention of tonic extensor convulsion). The note with it: Mus musculus, ip; mice, intraperitoneal, 60 min before megimide 80 mg/kg s.c.; tonic extensor convulsion prevented for 3 hours in 50%; read-out: Antimegimide Effect ED50. Here is the method: Iii. anti-megimide Effect
Megimide (80 mg/kg) was administered subcutaneously to groups, each of 6 mice, 60 minutes after intra-peritoneal administration of the test compound. The ED50, a dose required to prevent for 3 hours, the tonic extensor convulsion induced by the administration of megimide in 50% of the animals, was determined graphically.

The nature of experiment [3]: Anti-pentylenetetrazole effect (prevention of death). The note with it: Mus musculus, ip; mice, intraperitoneal, 15 min before pentylenetetrazole 150 mg/kg s.c.; dead mice counted at 3 hours; read-out: Antipentylenetetrazole Effect ED50. The protocol:
Ii. anti-pentylenetetrazole Effect
Pentylenetetrazole (150 mg/kg) was administered subcutaneously to groups, each of 6 mice, 15 minutes after intraperitoneal administration of the test compound. The number of dead mice were counted 3 hours after the administration of pentylenetetrazole, and then the ED50, a dose required to reduce the number of dead mice to 50%, was determined graphically.

A word on the ED50: it is the dose at which the effect has come halfway, by size or by number of responders. With `Cc1cc2c(s1)-n1c(nn(C)c1=O)CN=C2c1ccccc1Cl` [A, 2,8-Dimethyl-6-o-chlorophenyl-1,2-dihydro-4H-s-triazolo [3,4-c]-thieno[2,3-e][1,4]diazepin-1-one], the results for the ED50 in experiment [1], in experiment [2] and in experiment [3] were 4.8 mg/kg, 1.3 mg/kg and 0.9 mg/kg, respectively.

Take `CCc1cc2c(s1)-n1c(nn(C)c1=O)CN=C2c1ccccc1Cl` [B, 2-Methyl-6-o-chlorophenyl-8-ethyl-1,2-dihydro-4H-s-triazolo[3,4-c]-thieno[2,3-e][1,4]diazepin-1-one]: the 50% effective dose (ED50) was found to be 0.8 mg/kg in experiment [1], 5.7 mg/kg in experiment [2] and 1.4 mg/kg in experiment [3].

`CCc1cc2c(s1)-n1c(n[nH]c1=O)CN=C2c1ccccc1Br` [C, 6-o-Bromophenyl-8-ethyl-1,2-dihydro-4H-s-triazolo[3,4-c]-thieno[2,3-e]-[1,4]diazepin-1-one]: the values for the ED50 in experiment [1], in experiment [2] and in experiment [3] were 2.7 mg/kg, 7.2 mg/kg and 2.6 mg/kg, respectively.
